Measured values from patent publication US12144799B2, “Method for long-term storage of chlorophyll-containing extract” (ABL CO., LTD, priority 2018, dated 2024).

How the values were obtained:
[1] = Fractional extraction of chlorophyll a from ethanol extract into oil layer (HPLC); format: physicochemical; conditions: oil added 1:1 (50 ml) to ethanol extract of wheatgrass powder, stirred, layers separated for 2 minutes
Experimental: (§1) In order to analyze the content of extracted chlorophyll, high-performance liquid chromatography (HPLC) was used. Purification was performed using the Agilent 1100 Series HPLC system from AGILENT, and the column used was Shimadzu Shim-pack C18 analytical column (250 mm×4.6 mm, 5 μm, 100). The peak was detected as ultraviolet ray absorption using a diode array detector. The injection volume was […], and the flow rate was […].
(§2) The reference material for chlorophyll a was purchased from Aldrich Chemical Co. (Milwaukee, Wis.), and was used without a further purification process.

[2] = Storage stability test of chlorophyll a in stabilization candidate oils (HPLC content); conditions: chlorophyll a in the oil layer, room temperature storage, dark place
Experimental: as §1, §2
The storage stability of chlorophyll a stabilization candidate materials used in the above process for chlorophyll-a was tested. Samples were collected for each storage period at various temperatures, and the content of chlorophyll a was analyzed using the HPLC system described above.
Temperatures for the test were respectively freezing temperature (−20° C.), refrigerating temperature (4° C.), room temperature (25° C.), high temperature (50° C.), and being left at room temperature.
In this process, ethanol was removed. Thereafter, the obtained was stored for a predetermined period in a dark place for each temperature to collect samples for each storage period, and then the content of chlorophyll a was analyzed using the HPLC system described above.

## CC(C)=CCC/C(C)=C/CC/C(C)=C/CC/C=C(\C)CC/C=C(\C)CCC=C(C)C [squalene]
[1]
  chlorophyll a moved to / dissolved in the oil phase: more than 80%
[2]
  half-life of chlorophyll a: 7 months
